Source: patent publication US20220226280A1, “COMPOSITIONS AND METHODS FOR INCREASED GLUCOSE UPTAKE AND FAT METABOLISM” (Board of Supervisors of Louisiana State University and …, priority 2017, published 2022)
Read-outs that look alike come from different tables or passages of the source. One block for each compound: values may come before it.

Tests used:
GLUT4 mRNA = GLUT4 mRNA induction in differentiated human adipocytes (Taqman RT-PCR); type: cell-based; settings: human subcutaneous adipocyte cultures
Protocol: (§1) Gene expression was analyzed using Taqman RT-PCR and values are expressed as fold increase over untreated controls (n=5).
Gene expression was analyzed using Taqman RT-PCR and values are expressed as fold increase over untreated controls. Naringenin and Menthol v. Control: p=0.008, Naringenin and Menthol v. Naringenin: p=0.01. Naringenin and Menthol v. Menthol: p<0.001, Naringenin v. Control: p>0.05, Menthol v. Control: p>0.05.
(§2) UCP1 mRNA levels increased 4-8 fold in human subcutaneous adipocytes treated from 4-7 days with Naringenin at a concentration of 10 μM, the Cmax detected in human plasma after intake of citrus beverages (FIG. 1) (Kanaze, F. I., et al., Eur J Clin Nutr, 2007 61(4):472-7).

[1] = cited from earlier work
HEK293 cells = settings: cited from earlier work
UCP1 mRNA = UCP1 mRNA induction in differentiated human adipocytes (Taqman RT-PCR); type: cell-based; settings: for UCP1 expression in comparison with flavonoid alone: flavonoid 5 μM combined with 20 μM menthol, 7 day treatment
Protocol: as §1
Gene expression was analyzed using Taqman RT-PCR and values are expressed as fold increase over untreated controls.
To determine the lowest concentrations with efficacy to induce UCP1 mRNA in human adipocytes over a 7 day time period, cells were treated with multiple concentrations of menthol combined with naringenin at 5 μM (FIG. 6).

[2] = tested on: carnitine palmitoyltransferase 1 (CPT-1); experiment: CPT-1 induction in human subcutaneous adipocyte cultures; type: cell-based
Protocol: as §1, §2

TRPM8 receptor = TRPM8 receptor expression in human adipocytes; type: cell-based; settings: 10 μM Naringenin alone
Pgc-1α = Pgc-1α expression in human subcutaneous adipocytes; type: cell-based; settings: Naringenin 10 μM
Protocol: as §1, §2

[3] = cited from earlier work; remark: listed apart in the source
TRPM8 = TRPM8 (Homo sapiens, UniProt Q7Z2W7); settings: cited from earlier work
Chain of TRPM8 (Q7Z2W7 whole entry, species assumed): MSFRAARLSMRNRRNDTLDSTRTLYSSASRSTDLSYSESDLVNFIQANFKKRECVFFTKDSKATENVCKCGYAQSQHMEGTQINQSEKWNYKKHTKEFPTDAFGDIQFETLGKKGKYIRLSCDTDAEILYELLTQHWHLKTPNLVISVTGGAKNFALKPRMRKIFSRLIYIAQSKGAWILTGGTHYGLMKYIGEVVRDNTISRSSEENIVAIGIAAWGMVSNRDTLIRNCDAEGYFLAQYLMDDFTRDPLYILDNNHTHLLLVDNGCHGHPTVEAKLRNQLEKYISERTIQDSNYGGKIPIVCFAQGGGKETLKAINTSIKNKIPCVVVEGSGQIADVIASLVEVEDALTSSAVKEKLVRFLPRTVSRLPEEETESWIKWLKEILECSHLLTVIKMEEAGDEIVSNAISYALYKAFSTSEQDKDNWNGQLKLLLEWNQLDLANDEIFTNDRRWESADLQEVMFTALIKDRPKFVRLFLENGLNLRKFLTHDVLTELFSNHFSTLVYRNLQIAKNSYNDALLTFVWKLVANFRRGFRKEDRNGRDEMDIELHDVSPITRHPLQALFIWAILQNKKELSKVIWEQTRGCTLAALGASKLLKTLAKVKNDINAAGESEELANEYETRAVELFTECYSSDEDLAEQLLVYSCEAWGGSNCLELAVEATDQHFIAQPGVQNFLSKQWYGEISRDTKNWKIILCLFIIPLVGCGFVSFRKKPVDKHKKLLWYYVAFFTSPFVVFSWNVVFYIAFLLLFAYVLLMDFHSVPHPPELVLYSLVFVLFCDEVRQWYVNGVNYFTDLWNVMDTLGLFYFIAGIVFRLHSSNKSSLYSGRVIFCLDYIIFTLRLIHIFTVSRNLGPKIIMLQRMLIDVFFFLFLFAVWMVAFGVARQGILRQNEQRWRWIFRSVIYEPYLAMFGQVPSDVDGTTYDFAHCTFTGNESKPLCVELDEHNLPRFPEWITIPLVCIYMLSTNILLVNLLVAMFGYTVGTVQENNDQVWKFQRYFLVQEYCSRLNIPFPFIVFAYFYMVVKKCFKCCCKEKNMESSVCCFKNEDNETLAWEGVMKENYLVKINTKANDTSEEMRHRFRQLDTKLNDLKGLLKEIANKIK

UCP1 expression [4] = settings: cited from earlier work
Ucp1 expression [5] = settings: brown adipocytes from mice; cited from earlier work

induction of brown adipocyte marker CPT-1 [2]: significantly induces
SMILES: O=C1C[C@@H](c2ccc(O)cc2)Oc2cc(O)cc(O)c21 (stereo in doubt) [Naringenin, 2,3-dihydro-5,7-dihydroxy-2-(4-hydroxyphenyl)-4H-1-benzopyran-4-one]
induction of brown adipocyte marker GLUT4 (GLUT4 mRNA): significantly induces
solubility ([1]; aqueous solutions): sparingly soluble
solubility ([1]; ethanol, ether, oils (e.g., olive oil or citrus oil) and supercritical carbon dioxide): soluble
toxicity to cells (maximum concentration) (HEK293 cells): 12.5 µM
UCP1 mRNA levels increased (UCP1 mRNA; Naringenin 10 μM, 4-7 days, human subcutaneous adipocytes): 4-8 fold
induction of brown adipocyte marker UCP1 (UCP1 mRNA; human subcutaneous adipocyte cultures): significantly induces
increase in TRPM8 receptor expression (TRPM8 receptor): 4 fold
increase in transcriptional activator Pgc-1α (Pgc-1α): No increases were observed
Cmax ([3]; human plasma/serum after intake of citrus beverages, read-out: Cmax): 10 µM

SMILES: CC12CCC(CC1)C(C)(C)O2 [Eucalyptol]
UCP1 mRNA expression versus naringenin alone (UCP1 mRNA; eucalyptol at 100 μM and 200 μM in combination with Naringenin 5 μM, 7 d): did not increase UCP1 mRNA expression above the level observed with naringenin alone

SMILES: COc1ccc([C@@H]2CC(=O)c3c(O)cc(O)cc3O2)cc1O [Hesperetin]
UCP1 expression in comparison with flavonoid alone (UCP1 mRNA): No statistical difference

SMILES: O=C1NC(c2cccc([N+](=O)[O-])c2)=CCN1c1ccccc1O [Icilin]
EC50 (TRPM8; TRPM8 activator): ~500 nM
potency relative to menthol (TRPM8): at least 100 fold
synergy for UCP1 mRNA induction (UCP1 mRNA; 0.5 μM icilin combined with Naringenin 5 μM, 7 d): did not display synergy

SMILES: CC1CCC(C(C)C)C(O)C1 (stereo not drawn) [Menthol]
increase in UCP1 expression (UCP1 expression [4]; Menthol 100 μM overnight): 1.5 fold
increase in UCP1 expression (UCP1 expression [4]; Menthol 100 μM, cells exposed to 26° C.): 40 fold
Ucp1 expression (Ucp1 expression [5]): concentration-dependent increase
induction of UCP1 or other beige markers (UCP1 mRNA; Menthol alone, human adipocyte cultures): No induction
Cmax ([3]; menthol, read-out: Cmax): 20 µM
Cmax ([3]; menthol, read-out: high end of serum Cmax): 30 µM

SMILES: COc1cc(CN(CCN)C(=O)OC(C)c2ccccc2)ccc1OCc1ccccc1 (stereo not drawn) [PBMC]
Naringenin-stimulated UCP1 expression in presence of inhibitor (UCP1 mRNA; inhibitor during 5 μM Naringenin treatment for 3 days): prevented Naringenin-stimulated UCP1 expression

SMILES: O=c1cc(-c2ccc(O)cc2)oc2cc(O)cc(O)c12 [apigenin]
UCP1 expression in comparison with flavonoid alone (UCP1 mRNA): No statistical difference

SMILES: O=c1c(O)c(-c2ccc(O)c(O)c2)oc2cc(O)cc(O)c12 [quercetin]
UCP1 expression in comparison with flavonoid alone (UCP1 mRNA): No statistical difference
